Source: patent US11174269B2, “Method for producing 1,2,4,5-cyclohexanetetracarboxylic dianhydride” (MITSUBISHI GAS CHEMICAL COMPANY, INC., priority 2017, dated 2021)

Assay: Saturation solubility of 1,2,4,5-cyclohexanetetracarboxylic acid in water
Format: physicochemical
Source text: Here, the saturation solubility of 1,2,4,5-cyclohexanetetracarboxylic acid in water is as follows.

## O=C(O)C1CC(C(=O)O)C(C(=O)O)CC1C(=O)O (stereo not drawn) [1,2,4,5-cyclohexanetetracarboxylic acid]
88.2 °C
  Saturation solubility (concentration of a saturated aqueous solution): 29.6 % by mass
98.3 °C
  Saturation solubility (concentration of a saturated aqueous solution): 33.1 % by mass
100 °C
  Saturation solubility (concentration of a saturated aqueous solution): 33.7 % by mass
